Source: patent US20260055114A1, “IMIDAZO[1,2-B]PYRIDAZINE INHIBITORS OF CYCLIN-DEPENDENT KINASES” (H. LEE MOFFITT CANCER CENTER AND RESEARCH INSTITUTE, INC., priority 2022, published 2026)

What was measured:
[1] = target: CDK12 (Homo sapiens, UniProt Q9NYV4); test: Inhibition of cyclin-dependent kinase 12 (% enzyme activity at 1 uM and IC50); format: biochemical; details: for remaining activity at 1 µM: 1 uM compound
[2] = system: MDA-MB-231 cell line; test: Antiproliferative activity, MDA-MB-231 cell line (GI50); format: cell-based; details: Homo sapiens
[3] = system: CCNK; test: CCNK degradation (DC50, Dmax); format: cell-based; details: for Dmax (%): CCNK degradation

CDK12, sequence (Q9NYV4 whole entry): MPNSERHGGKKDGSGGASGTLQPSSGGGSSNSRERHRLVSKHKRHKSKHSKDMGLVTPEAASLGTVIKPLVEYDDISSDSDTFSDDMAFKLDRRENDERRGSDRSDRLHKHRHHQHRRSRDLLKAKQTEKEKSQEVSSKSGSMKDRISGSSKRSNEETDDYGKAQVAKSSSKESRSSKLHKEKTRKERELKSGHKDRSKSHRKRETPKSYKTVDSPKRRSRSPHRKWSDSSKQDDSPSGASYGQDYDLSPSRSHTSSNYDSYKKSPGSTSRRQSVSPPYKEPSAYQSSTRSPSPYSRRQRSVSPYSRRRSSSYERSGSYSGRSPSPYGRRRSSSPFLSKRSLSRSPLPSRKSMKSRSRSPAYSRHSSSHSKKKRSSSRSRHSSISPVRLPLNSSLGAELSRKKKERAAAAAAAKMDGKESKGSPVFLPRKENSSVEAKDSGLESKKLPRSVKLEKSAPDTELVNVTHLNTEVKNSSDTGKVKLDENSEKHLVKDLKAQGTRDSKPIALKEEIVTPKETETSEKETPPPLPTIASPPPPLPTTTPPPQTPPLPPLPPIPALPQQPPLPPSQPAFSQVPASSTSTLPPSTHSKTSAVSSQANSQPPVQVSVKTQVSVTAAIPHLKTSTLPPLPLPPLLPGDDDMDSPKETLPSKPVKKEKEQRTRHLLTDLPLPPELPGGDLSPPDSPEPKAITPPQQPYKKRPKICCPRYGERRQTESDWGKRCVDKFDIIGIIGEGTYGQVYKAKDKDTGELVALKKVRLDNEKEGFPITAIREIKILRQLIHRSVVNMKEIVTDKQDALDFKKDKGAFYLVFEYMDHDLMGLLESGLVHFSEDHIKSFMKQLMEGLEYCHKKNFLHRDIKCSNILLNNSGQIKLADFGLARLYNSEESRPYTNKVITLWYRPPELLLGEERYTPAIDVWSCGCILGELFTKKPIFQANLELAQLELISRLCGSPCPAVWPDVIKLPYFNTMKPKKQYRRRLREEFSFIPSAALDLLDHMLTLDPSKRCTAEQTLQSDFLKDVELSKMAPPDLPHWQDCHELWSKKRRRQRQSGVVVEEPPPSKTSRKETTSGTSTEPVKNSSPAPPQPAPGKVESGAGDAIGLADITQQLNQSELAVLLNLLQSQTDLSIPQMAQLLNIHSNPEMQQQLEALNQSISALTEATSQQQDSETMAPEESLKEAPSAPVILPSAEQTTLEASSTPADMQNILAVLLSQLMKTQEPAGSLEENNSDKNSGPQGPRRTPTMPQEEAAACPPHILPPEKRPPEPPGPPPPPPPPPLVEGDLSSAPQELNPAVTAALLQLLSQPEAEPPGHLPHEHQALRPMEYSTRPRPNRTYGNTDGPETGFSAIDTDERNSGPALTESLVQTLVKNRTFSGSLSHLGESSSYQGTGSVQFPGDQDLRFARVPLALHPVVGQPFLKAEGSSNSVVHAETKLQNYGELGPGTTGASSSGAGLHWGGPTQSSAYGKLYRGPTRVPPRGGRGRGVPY
CDK12, sequence (O75909 whole entry partner): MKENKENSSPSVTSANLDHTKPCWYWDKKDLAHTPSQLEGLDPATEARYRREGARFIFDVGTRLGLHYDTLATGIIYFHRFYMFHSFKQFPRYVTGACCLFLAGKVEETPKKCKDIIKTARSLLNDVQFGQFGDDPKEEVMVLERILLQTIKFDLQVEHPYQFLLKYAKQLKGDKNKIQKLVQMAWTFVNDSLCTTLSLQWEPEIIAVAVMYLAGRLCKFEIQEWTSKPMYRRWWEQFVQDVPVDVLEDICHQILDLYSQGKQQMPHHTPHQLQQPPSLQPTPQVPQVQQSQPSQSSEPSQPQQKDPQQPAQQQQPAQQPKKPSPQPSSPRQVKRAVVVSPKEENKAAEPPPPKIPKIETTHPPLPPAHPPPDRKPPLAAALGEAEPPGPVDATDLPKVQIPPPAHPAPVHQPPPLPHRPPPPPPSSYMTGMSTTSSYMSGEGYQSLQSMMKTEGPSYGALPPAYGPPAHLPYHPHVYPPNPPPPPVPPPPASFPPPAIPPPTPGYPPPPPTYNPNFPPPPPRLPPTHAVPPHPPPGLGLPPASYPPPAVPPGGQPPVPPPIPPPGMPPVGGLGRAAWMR

IC50 [1] [nM]	GI50 [2] [nM]	DC50 [3] [nM]	remaining activity at 1 µM [1] [%]	SMILES	Dmax (%) [3] [%]
90	180	80		CN1CCN(c2cc(NCc3nc4cccc(Cl)c4[nH]3)c3ncc(-c4ccsc4)n3n2)CC1 [Cmpd 66, N-((7-chloro-1H-benzo[d]imidazol-2-yl)methyl)-6-(4-methylpiperazin-1-yl)-3-(thiophen-3-yl) imidazo[1,2-b]pyridazin-8-amine]	85
54	419	240		Cc1ccnc2[nH]c(CNc3cc(N4CCN(C)CC4)nn4c(-c5cnn(C(F)F)c5)cnc34)nc12 [Cmpd 57, 3-(1-(difluoromethyl)-1H-pyrazol-4-yl)-N-((7-methyl-3H-imidazo[4,5-b]pyridin-2-yl)methyl)-6-(4-methylpiperazin-1-yl) imidazo[1,2-b]pyridazin-8-amine]	65
57	92	150		NC1CCN(c2cc(NCc3nc4cccc(Cl)c4[nH]3)c3ncc(-c4ccsc4)n3n2)C1 (centres unmarked) [Cmpd 69, 6-(3-aminopyrrolidin-1-yl)-N-((7-chloro-1H-benzo[d]imidazol-2-yl)methyl)-3-(thiophen-3-yl) imidazo[1,2-b]pyridazin-8-amine]	85
78	73	160		NC1CCN(c2cc(NCc3nc4cccc(Cl)c4[nH]3)c3ncc(-c4ccsc4)n3n2)CC1 [Cmpd 70, 6-(4-aminopiperidin-1-yl)-N-((7-chloro-1H-benzo[d]imidazol-2-yl)methyl)-3-(thiophen-3-yl) imidazo[1,2-b]pyridazin-8-amine]	95
3000	4110	2100	68	CC(C)n1cc(-c2cnc3c(NCc4nc5cc(Cl)c(Cl)cc5[nH]4)cc(N4CCOCC4)nn23)cn1 [Cmpd 15, N-((5,6-dichloro-1H-benzo[d]imidazol-2-yl)methyl)-3-(1-isopropyl-1H-pyrazol-4-yl)-6-morpholinoimidazo[1,2-b]pyridazin-8-amine]	65
	5130	1900	55	CN1CCN(c2cc(NCc3nc4c(F)cccc4[nH]3)c3ncc(-c4cnn(C(F)F)c4)n3n2)CC1 [Cmpd 51, 3-(1-(difluoromethyl)-1H-pyrazol-4-yl)-N-((4-fluoro-1H-benzo[d]imidazol-2-yl)methyl)-6-(4-methylpiperazin-1-yl) imidazo[1,2-b]pyridazin-8-amine]	50
5000	1770	10000	84	CC(C)n1cc(-c2cnc3c(NCc4nc5cc(Cl)c(Cl)cc5[nH]4)cc(N4CCN(C)CC4)nn23)cn1 [Cmpd 14, N-((5,6-dichloro-1H-benzo[d]imidazol-2-yl)methyl)-3-(1-isopropyl-1H-pyrazol-4-yl)-6-(4-methylpiperazin-1-yl) imidazo[1,2-b]pyridazin-8-amine]	
1000	7930	5600		Cc1ccnc2[nH]c(CNc3cc(N4CCN(C)CC4)nn4c(-c5cnn(C)c5)cnc34)nc12 [Cmpd 11, 3-(1-methyl-1H-pyrazol-4-yl)-N-((7-methyl-3H-imidazo[4,5-b]pyridin-2-yl)methyl)-6-(4-methylpiperazin-1-yl) imidazo[1,2-b]pyridazin-8-amine]	60
292	49	150		FC(F)n1cc(-c2cnc3c(NCc4nc5cc(Cl)c(Cl)cc5[nH]4)cc(N4CCNCC4)nn23)cn1 [Cmpd 43, N-((5,6-dichloro-1H-benzo[d]imidazol-2-yl)methyl)-3-(1-(difluoromethyl)-1H-pyrazol-4-yl)-6-(piperazin-1-yl) imidazo[1,2-b]pyridazin-8-amine]	100
	10000	1300	79	Cc1cc(-c2cnc3c(NCc4nc5c(F)c(F)ccc5[nH]4)cc(N4CCOCC4)nn23)cs1 [Cmpd 97, N-((4,5-difluoro-1H-benzo[d]imidazol-2-yl)methyl)-3-(5-methylthiophen-3-yl)-6-morpholinoimidazo[1,2-b]pyridazin-8-amine]	75
1420	154	440		NC1CCN(c2cc(NCc3nc4cc(Cl)c(Cl)cc4[nH]3)c3ncc(-c4cnn(C(F)F)c4)n3n2)C1 (centres unmarked) [Cmpd 44, 6-(3-aminopyrrolidin-1-yl)-N-((5,6-dichloro-1H-benzo[d]imidazol-2-yl)methyl)-3-(1-(difluoromethyl)-1H-pyrazol-4-yl) imidazo[1,2-b]pyridazin-8-amine]	100
3000	4280	1300		CN1CCN(c2cc(NCc3nc4c(F)c(F)ccc4[nH]3)c3ncc(-c4cnn(C)c4)n3n2)CC1 [Cmpd 5, N-((4,5-difluoro-1H-benzo[d]imidazol-2-yl)methyl)-3-(1-methyl-1H-pyrazol-4-yl)-6-(4-methylpiperazin-1-yl) imidazo[1,2-b]pyridazin-8-amine]	65
359	390	30	23	Fc1cccc2[nH]c(CNc3cc(N4CCOCC4)nn4c(-c5cnn(C(F)F)c5)cnc34)nc12 [Cmpd 52, 3-(1-(difluoromethyl)-1H-pyrazol-4-yl)-N-((4-fluoro-1H-benzo[d]imidazol-2-yl)methyl)-6-morpholinoimidazo[1,2-b]pyridazin-8-amine]	80
	5430	1600	53	CN1CCN(c2cc(NCc3nc4c(F)c(F)ccc4[nH]3)c3ncc(-c4cnn(C5CC5)c4)n3n2)CC1 [Cmpd 38, 3-(1-cyclopropyl-1H-pyrazol-4-yl)-N-((4,5-difluoro-1H-benzo[d]imidazol-2-yl)methyl)-6-(4-methylpiperazin-1-yl) imidazo[1,2-b]pyridazin-8-amine]	65
1250	689	10000	59	Cc1noc(C)c1-c1cnc2c(NCc3nc4cc(Cl)c(Cl)cc4[nH]3)cc(N3CCN(C)CC3)nn12 [Cmpd 99, N-((5,6-dichloro-1H-benzo[d]imidazol-2-yl)methyl)-3-(3,5-dimethylisoxazol-4-yl)-6-(4-methylpiperazin-1-yl) imidazo[1,2-b]pyridazin-8-amine]	
175	440	110		CN1CCN(c2cc(NCc3nc4c(F)c(F)ccc4[nH]3)c3ncc(-c4cnn(C(F)F)c4)n3n2)CC1 [Cmpd 54, N-((4,5-difluoro-1H-benzo[d]imidazol-2-yl)methyl)-3-(1-(difluoromethyl)-1H-pyrazol-4-yl)-6-(4-methylpiperazin-1-yl) imidazo[1,2-b]pyridazin-8-amine]	85
1320	235	590		Clc1cc2nc(CNc3cc(N4CCOCC4)nn4c(-c5cn[nH]c5)cnc34)[nH]c2cc1Cl [Cmpd 61, N-((5,6-dichloro-1H-benzo[d]imidazol-2-yl)methyl)-6-morpholino-3-(1H-pyrazol-4-yl) imidazo[1,2-b]pyridazin-8-amine]	100
130	71	160		CN1CCC(Nc2cc(NCc3nc4cccc(Cl)c4[nH]3)c3ncc(-c4ccsc4)n3n2)CC1 [Cmpd 71, N8-((7-chloro-1H-benzo[d]imidazol-2-yl)methyl)-N6-(1-methylpiperidin-4-yl)-3-(thiophen-3-yl) imidazo[1,2-b]pyridazine-6,8-diamine]	100
	6160	830	60	Clc1cccc2nc(CNc3cc(N4CCOCC4)nn4c(-c5cnn(C6CC6)c5)cnc34)[nH]c12 [Cmpd 33, N-((7-chloro-1H-benzo[d]imidazol-2-yl)methyl)-3-(1-cyclopropyl-1H-pyrazol-4-yl)-6-morpholinoimidazo[1,2-b]pyridazin-8-amine]	65
1110	5180	10000	53	CC(C)n1cc(-c2cnc3c(NCc4nc5c(F)c(F)ccc5[nH]4)cc(N4CCN(C)CC4)nn23)cn1 [Cmpd 23, N-((4,5-difluoro-1H-benzo[d]imidazol-2-yl)methyl)-3-(1-isopropyl-1H-pyrazol-4-yl)-6-(4-methylpiperazin-1-yl) imidazo[1,2-b]pyridazin-8-amine]	
	5170	1300	49	CN1CCN(c2cc(NCc3nc4c(F)cccc4[nH]3)c3ncc(-c4cnn(C5CC5)c4)n3n2)CC1 [Cmpd 35, 3-(1-cyclopropyl-1H-pyrazol-4-yl)-N-((4-fluoro-1H-benzo[d]imidazol-2-yl)methyl)-6-(4-methylpiperazin-1-yl) imidazo[1,2-b]pyridazin-8-amine]	80
919	5600	10000	45	CC(C)n1cc(-c2cnc3c(NCc4nc5cccc(Cl)c5[nH]4)cc(N4CCN(C)CC4)nn23)cn1 [Cmpd 17, N-((7-chloro-1H-benzo[d]imidazol-2-yl)methyl)-3-(1-isopropyl-1H-pyrazol-4-yl)-6-(4-methylpiperazin-1-yl) imidazo[1,2-b]pyridazin-8-amine]	
1000	5000			CN(C)c1cc(NCc2nc3cccc(Cl)c3[nH]2)c2ncc(-c3ccsc3)n2n1 [Cmpd 73, N8-((7-chloro-1H-benzo[d]imidazol-2-yl)methyl)-N6,N6-dimethyl-3-(thiophen-3-yl) imidazo[1,2-b]pyridazine-6,8-diamine]	
	465	370		CN1CCN(c2cc(NCc3nc4cc(Cl)c(Cl)cc4[nH]3)c3ncc(-c4cnn(C(F)F)c4)n3n2)CC1(C)C [Cmpd 49, N-((5,6-dichloro-1H-benzo[d]imidazol-2-yl)methyl)-3-(1-(difluoromethyl)-1H-pyrazol-4-yl)-6-(3,3,4-trimethylpiperazin-1-yl) imidazo[1,2-b]pyridazin-8-amine]	95
